Data taken from patent publication US10138222B2, “Substituted benzamides as RIPK2 inhibitors” (Boehringer Ingelheim International GmbH, priority 2016, dated 2018).

Molecular target: RIPK2 (Homo sapiens (Human), UniProt O43353)
Test: RIPK2 inhibition, ADP-Glo Kinase Assay
Format: biochemical
Details: 8His-RIPK2 FL enzyme 8 nM, ATP 5 μM, 15 minutes pre-incubation, 60 minutes at 37° C., luminescence
How it was run: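 Full-length 8His-RIPK2 (8 nM) preincubated 15 min at RT with compound (1% DMSO), then 5 μM ATP added for 60 min at 37 °C in HEPES pH 7.5 buffer with Mg2+/Mn2+. ADP measured by ADP-Glo luminescence; activity expressed as % of vehicle control, no-enzyme wells as low control.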

Chain of RIPK2 (O43353 whole entry): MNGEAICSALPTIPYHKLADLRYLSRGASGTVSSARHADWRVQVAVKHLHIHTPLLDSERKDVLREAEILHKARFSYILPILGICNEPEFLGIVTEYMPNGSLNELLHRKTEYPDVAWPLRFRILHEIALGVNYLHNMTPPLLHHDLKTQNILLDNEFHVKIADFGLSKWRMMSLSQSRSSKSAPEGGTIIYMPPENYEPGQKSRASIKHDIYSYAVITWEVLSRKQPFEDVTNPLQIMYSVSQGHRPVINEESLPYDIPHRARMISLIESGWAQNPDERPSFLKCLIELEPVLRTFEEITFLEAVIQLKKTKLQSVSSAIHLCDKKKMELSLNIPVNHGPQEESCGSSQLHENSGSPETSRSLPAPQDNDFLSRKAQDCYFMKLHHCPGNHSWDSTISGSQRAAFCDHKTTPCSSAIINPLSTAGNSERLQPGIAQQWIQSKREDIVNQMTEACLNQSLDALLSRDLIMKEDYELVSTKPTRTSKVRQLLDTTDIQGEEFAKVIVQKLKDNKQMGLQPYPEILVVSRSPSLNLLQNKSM

IC50	Structure (SMILES)
44 nM	CC(=O)N1CC[C@H](Oc2cncc(-n3cc(-c4cc(C(=O)NC5CC5)ccc4C)cn3)c2)C1 [Example 129, 3-[1-(5-{[(3S)-1-acetylpyrrolidin-3-yl]oxy}pyridin-3-yl)-1H-pyrazol-4-yl]-N-cyclopropyl-4-methyl-benzamide]
11 nM	Cc1ccc(C(=O)NC2CC2)cc1-c1cnn(-c2cncc(C3(C#N)CC3)c2)c1 [Example 131, 3-{1-[5-(1-cyanocyclopropyl)pyridin-3-yl]-1H-pyrazol-4-yl}-N-cyclo-propyl-4-methylbenzamide]
120 nM	Cc1ccc(C(=O)NC2CC2)cc1-c1cnn(-c2cncc(CN3CCOCC3=O)c2)c1 [Example 135, N-cyclopropyl-4-methyl-3-(1-{5-[(3-oxomorpholin-4-yl)methyl]pyridin-3-yl}-1H-pyrazol-4-yl)benzamide]
43 nM	Cc1ccc(C(=O)NC2CC2)cc1-c1cnn(-c2cncc(C(C)N3CCCCS3(=O)=O)c2)c1 (stereo not shown) [Example 136, N-cyclopropyl-3-(1-{5-[1-(1,1-dioxo-1λ^6,2-thiazinan-2-yl)ethyl]pyridin-3-yl}-1H-pyrazol-4-yl)-4-methyl-benzamide]
120 nM	Cc1ccc(C(=O)NC2CC2)cc1-c1cnn(-c2cncc(C3(O)CCOCC3)c2)c1 [Example 137, N-cyclopropyl-3-{1-[5-(4-hydroxy-oxan-4-yl)pyridin-3-yl]-1H-pyrazol-4-yl}-4-methylbenzamide]
25 nM	Cc1ccc(C(=O)NC2CC2)cc1-c1cnn(-c2cncc(C3(O)CCOC3)c2)c1 (stereo not shown) [Example 138, N-cyclopropyl-3-{1-[5-(3-hydroxy-oxolan-3-yl)pyridin-3-yl]-1H-pyrazol-4-yl}-4-methylbenzamide]
38 nM	Cc1ccc(C(=O)NC2CC2)cc1-c1cnn(-c2cncc(C(C)N3CCCC3=O)c2)c1 (stereo not shown) [Example 140, N-cyclopropyl-4-methyl-3-(1-{5-[1-(2-oxopyrrolidin-1-yl)ethyl]pyridin-3-yl}-1H-pyrazol-4-yl)benzamide]
2.6 nM	CNc1cncc(-n2cc(-c3cc(C(=O)NC4CC4)ccc3C)cn2)c1 [Example 141, N-cyclopropyl-4-methyl-3-{1-[5-(methylamino)pyridin-3-yl]-1H-pyrazol-4-yl}benzamide]
3.2 nM	Cc1ccc(C(=O)NC2CC2)cc1-c1cnn(-c2cncc(NC(=O)NC3CCOC3)c2)c1 (stereo not shown) [Example 142, N-cyclopropyl-4-methyl-3-[1-(5-{[(oxolan-3-yl)carbamoyl]amino}pyridin-3-yl)-1H-pyrazol-4-yl] benzamide]
6.1 nM	COCCC(=O)Nc1cncc(-n2cc(-c3cc(C(=O)NC4CC4)ccc3C)cn2)c1 [Example 143, N-cyclopropyl-3-{1-[5-(3-methoxypropanamido)pyridin-3-yl]-1H-pyrazol-4-yl}-4-methylbenzamide]
2.9 nM	Cc1ccc(C(=O)NC2CC2)cc1-c1cnn(-c2cncc(NC(=O)C3CC3)c2)c1 [Example 144, 3-[1-(5-cyclopropaneamidopyridin-3-yl)-1H-pyrazol-4-yl]-N-cyclo-propyl-4-methylbenzamide]
4.7 nM	Cc1ccc(C(=O)NC2CC2)cc1-c1cnn(-c2cncc(OC3CCOC3)c2)c1 (stereo not shown) [Example 145, N-cyclopropyl-4-methyl-3-{1-[5-(oxolan-3-yloxy)pyridin-3-yl]-1H-pyrazol-4-yl}benzamide]
6.1 nM	Cc1ccc(C(=O)NC2CC2)cc1-c1cnn(-c2cncc(OCC3CC3)c2)c1 [Example 146, N-cyclopropyl-3-{1-[5-(cyclopropylmethoxy)pyridin-3-yl]-1H-pyrazol-4-yl}-4-methyl-benzamide]
8.1 nM	Cc1ccc(C(=O)NC2CC2)cc1-c1cnn(-c2cncc(OCC3CCOCC3)c2)c1 [Example 147, N-cyclopropyl-4-methyl-3-{1-[5-(oxan-4-ylmethoxy)pyridin-3-yl]-1H-pyrazol-4-yl}benzamide]
12 nM	Cc1ccc(C(=O)NC2CC2)cc1-c1cnn(-c2cncc(OC3CCCC3)c2)c1 [Example 148, 3-{1-[5-(cyclopentyloxy)pyridin-3-yl]-1H-pyrazol-4-yl}-N-cyclopropyl-4-methylbenzamide]
8.9 nM	CC(=O)N1CCC(Oc2cncc(-n3cc(-c4cc(C(=O)NC5CC5)ccc4C)cn3)c2)CC1 [Example 149, 3-(1-{5-[(1-acelylpiperidin-4-yl)oxy]pyridin-3-yl}-1H-pyrazol-4-yl)-N-cyclopropyl-4-methyl-benzamide]
7 nM	Cc1ccc(C(=O)NC2CC2)cc1-c1cnn(-c2cncc(OC[C@H]3CCCO3)c2)c1 [Example 150, N-cyclopropyl-4-methyl-3-(1-{5-[(2R)-oxolan-2-ylmethoxy]pyridin-3-yl}-1H-pyrazol-4-yl) benzamide]

IC50	Structure (SMILES)
6.4 nM	Cc1ccc(C(=O)NC2CC2)cc1-c1cnn(-c2cncc(OC3CCC(C#N)C3)c2)c1 (stereo not shown) [Example 151, 3-(1-{5-[(3-cyanocyclopentyl)oxy]pyridin-3-yl}-1H-pyrazol-4-yl)-N-cyclopropyl-4-methylbenzamide]
1.6 nM	Cc1ccc(C(=O)NC2CC2)cc1-c1cnn(-c2cncc(NC3CCN(C(C)CCO)CC3)c2)c1 (stereo not shown) [Example 153, N-cyclopropyl-3-[1-(5-{[1-(4-hydroxybutan-2-yl)piperidin-4-yl]amino}pyridin-3-yl)-1H-pyrazol-4-yl]-4-methylbenzamide]
1.8 nM	Cc1ccc(C(=O)NC2CC2)cc1-c1cnn(-c2cncc(NC3CCN(CC4CCOC4)CC3)c2)c1 (stereo not shown) [Example 154, N-cyclopropyl-4-methyl-3-[1-(5-{[1-(oxolan-3-ylmethyl)piperidin-4-yl]amino}pyridin-3-yl)-1H-pyrazol-4-yl]benzamide]
1.7 nM	Cc1ccc(C(=O)NC2CC2)cc1-c1cnn(-c2cncc(NC3CCN(CC4CCOCC4)CC3)c2)c1 [Example 155, N-cyclopropyl-4-methyl-3-[1-(5-{[1-(oxan-4-ylmethyl)piperidin-4-yl]amino}pyridin-3-yl)-1H-pyrazol-4-yl]benzamide]
1.6 nM	COCC(C)N1CCC(Nc2cncc(-n3cc(-c4cc(C(=O)NC5CC5)ccc4C)cn3)c2)CC1 (stereo not shown) [Example 156, N-cyclopropyl-3-[1-(5-{[1-(1-methoxypropan-2-yl)piperidin-4-yl]amino}pyridin-3-yl)-1H-pyrazol-4-yl]-4-methylbenzamide]
1.9 nM	Cc1ccc(C(=O)NC2CC2)cc1-c1cnn(-c2cncc(NC3CCN(C(C)CO)CC3)c2)c1 (stereo not shown) [Example 157, N-cyclopropyl-3-[1-(5-{[1-(1-hydroxypropan-2-yl)piperidin-4-yl]amino}pyridin-3-yl)-1H-pyrazol-4-yl]-4-methylbenzamide]
1.2 nM	CC(=O)N1CCC(N2CCC(Nc3cncc(-n4cc(-c5cc(C(=O)NC6CC6)ccc5C)cn4)c3)CC2)CC1 [Example 158, 3-[1-(5-{[1-(1-acetylpiperidin-4-yl)piperidin-4-yl]amino}pyridin-3-yl)-1H-pyrazol-4-yl]-N-cyclopropyl-4-methylbenzamide]
1.8 nM	Cc1ccc(C(=O)NC2CC2)cc1-c1cnn(-c2cncc(NC3CCN(C4CCOC4C)CC3)c2)c1 (stereo not shown) [Example 159, N-cyclopropyl-4-methyl-3-[1-(5-{[1-(2-methyloxolan-3-yl)piperidin-4-yl]amino}pyridin-3-yl)-1H-pyrazol-4-yl]benzamide]
1.1 nM	COC1CCC(N2CCC(Nc3cncc(-n4cc(-c5cc(C(=O)NC6CC6)ccc5C)cn4)c3)CC2)CC1 (stereo not shown) [Example 160, N-cyclopropyl-3-[1-(5-{[1-(4-methoxycyclohexyl)piperidin-4-yl]amino}pyridin-3-yl)-1H-pyrazol-4-yl]-4-methylbenzamide]
1.5 nM	Cc1ccc(C(=O)NC2CC2)cc1-c1cnn(-c2cncc(NC3CCN(C4CCCOC4)CC3)c2)c1 (stereo not shown) [Example 161, N-cyclopropyl-4-methyl-3-[1-(5-{[1-(oxan-3-yl)piperidin-4-yl]amino}pyridin-3-yl)-1H-pyrazol-4-yl] benzamide]
2.3 nM	Cc1ccc(C(=O)NC2CC2)cc1-c1cnn(-c2cncc(NC3CCN(C4CCOCC4)CC3)c2)c1 [Example 162, N-cyclopropyl-4-methyl-3-[1-(5-{[1-(oxan-4-yl)piperidin-4-yl]amino}pyridin-3-yl)-1H-pyrazol-4-yl] benzamide]
1.1 nM	COC1COCCC1N1CCC(Nc2cncc(-n3cc(-c4cc(C(=O)NC5CC5)ccc4C)cn3)c2)CC1 (stereo not shown) [Example 163, N-cyclopropyl-3-[1-(5-{[1-(3-methoxyoxan-4-yl)piperidin-4-yl]amino}pyridin-3-yl)-1H-pyrazol-4-yl]-4-methylbenzamide]
2.1 nM	Cc1ccc(C(=O)NC2CC2)cc1-c1cnn(-c2cncc(NC3CCN(C4CCOCC4C)CC3)c2)c1 (stereo not shown) [Example 164, N-cyclopropyl-4-methyl-3-[1-(5-{[1-(3-methyloxan-4-yl)piperidin-4-yl]amino}pyridin-3-yl)-1H-pyrazol-4-yl]benzamide]
1.2 nM	Cc1ccc(C(=O)NC2CC2)cc1-c1cnn(-c2cncc(NC3CCN(C4CCOC(C)C4)CC3)c2)c1 (stereo not shown) [Example 165, N-cyclopropyl-4-methyl-3-[1-(5-{[1-(2-methyloxan-4-yl)piperidin-4-yl]amino}pyridin-3-yl)-1H-pyrazol-4-yl]benzamide]
0.94 nM	Cc1ccc(C(=O)NC2CC2)cc1-c1cnn(-c2cncc(NC3CCN(C4CCOC4)CC3)c2)c1 (stereo not shown) [Example 166, N-cyclopropyl-4-methyl-3-[1-(5-{[1-(oxolan-3-yl)piperidin-4-yl]amino}pyridin-3-yl)-1H-pyrazol-4-yl] benzamide]
1 nM	Cc1ccc(C(=O)NC2CC2)cc1-c1cnn(-c2cncc(NC3CCN(CC4C5COCC54)CC3)c2)c1 (stereo not shown) [Example 167, N-cyclopropyl-4-methyl-3-(1-{5-[(1-{3-oxabicyclo[3.1.0]hexan-6-ylmethyl}piperidin-4-yl)amino]pyridin-3-yl}-1H-pyrazol-4-yl) benzamide]

Structure (SMILES)	IC50
Cc1ccc(C(=O)NC2CC2)cc1-c1cnn(-c2cncc(OC3CC(CO)(CO)C3)c2)c1 [Example 152, 3-(1-{5-[3,3-bis(hydroxymethyl)cyclobutoxy]pyridin-3-yl}-1H-pyrazol-4-yl)-N-cyclopropyl-4-methylbenzamide]	4.2 nM
